From US5672715A, “Herbicidal substituted 3-aryl-pyrazoles” (Monsanto Company, priority 1995, dated 1997)

Columns and labels:
Type in all cases: in vivo
[1] = test system: Prickly Sida; test: post-emergence herbicide test; conditions: 0.25 lb/A, read-out: % plant inhibition
Summary of the method: (§1)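 Soil pans seeded, covered and leveled; grown in greenhouse 2–3 weeks. Sprayed individually (atomizer, 10 psig, 200 gallons/acre). Percent inhibition recorded.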

[2] = test system: Black Nightshade; test: post-emergence herbicide test; conditions: Solanum nigrum, 0.25 lb/A, read-out: % plant inhibition
Summary of the method: as §1

[3] = test system: Hemp Sesbania; test: post-emergence herbicide test; conditions: 0.25 lb/A, read-out: % plant inhibition
Summary of the method: as §1

[4] = test system: Sicklepod; test: post-emergence herbicide test; conditions: Senna obtusifolia, 0.25 lb/A, read-out: % plant inhibition
Summary of the method: as §1

[5] = test system: Soybean; test: pre-emergence herbicide test; conditions: Glycine max, pre-emergence, read-out: % plant inhibition
Summary of the method: (§2)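 Read-out is percent inhibition at approximately 14 days after seeding and treating. Seeds sat on compacted topsoil beneath a cover layer containing compound in acetone or water, with greenhouse bottom-watering.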

[6] = test system: Seedling Johnsongrass; test: pre-emergence herbicide test; conditions: 0.25 lb/A
Summary of the method: as §2

[7] = test system: Prickly Sida; test: pre-emergence herbicide test; conditions: 0.25 lb/A, read-out: % plant inhibition
Summary of the method: as §2

[8] = test system: Giant Foxtail; test: pre-emergence herbicide test; conditions: Setaria faberi, pre-emergence, 0.25 lb/A; read-out: % plant inhibition
Summary of the method: as §2

[9] = test system: Barnyardgrass; test: pre-emergence herbicide test; conditions: Echinochloa crus-galli, pre-emergence, read-out: % plant inhibition
Summary of the method: as §2

[10] = test system: Corn; test: pre-emergence herbicide test; conditions: Zea mays, pre-emergence, read-out: % plant inhibition
Summary of the method: as §2

[11] = test system: Cocklebur; test: pre-emergence herbicide test; conditions: Xanthium strumarium, pre-emergence, read-out: % plant inhibition
Summary of the method: as §2

[12] = test system: Yellow Nutsedge; test: pre-emergence herbicide test; conditions: Cyperus, read-out: % plant inhibition
Summary of the method: as §2

[13] = test system: Morning Glory; test: pre-emergence herbicide test; conditions: Ipomoea, pre-emergence, read-out: % plant inhibition
Summary of the method: as §2

Cc1c(-c2cc(OCC(=O)OC(C)C)c(Cl)cc2F)nn(C)c1C(F)(F)F [Compound 38]
inhibition at 280.212 g/ha [1]: 50% | inhibition at 280.212 g/ha [2]: 100% | inhibition at 280.212 g/ha [3]: 100% | inhibition at 280.212 g/ha [4]: 20% | inhibition at 7.95803 g/ha ([5]; 0.0071 lb/A): 0% | inhibition at 40.0143 g/ha ([5]; 0.0357 lb/A): 5% | inhibition at 280.212 g/ha ([5]; 0.25 lb/A): 0% | inhibition at 1000.92 g/ha ([5]; 0.893 lb/A): 70% | % plant inhibition [6]: 25% | inhibition at 280.212 g/ha ([6]; Sorghum halepense, pre-emergence, read-out: % plant inhibition): 30% | inhibition at 280.212 g/ha [7]: 95% | inhibition at 280.212 g/ha [8]: 20% | inhibition at 7.95803 g/ha ([9]; 0.0071 lb/A): 0% | inhibition at 40.0143 g/ha ([9]; 0.0357 lb/A): 15% | inhibition at 200.072 g/ha ([9]; 0.1785 lb/A): 35% | inhibition at 1000.92 g/ha ([9]; 0.893 lb/A): 70% | inhibition at 7.95803 g/ha ([10]; 0.0071 lb/A): 0% | inhibition at 40.0143 g/ha ([10]; 0.0357 lb/A): 0% | inhibition at 200.072 g/ha ([10]; 0.1785 lb/A): 0% | inhibition at 1000.92 g/ha ([10]; 0.893 lb/A): 40% | inhibition at 40.0143 g/ha ([11]; 0.0357 lb/A): 65% | inhibition at 200.072 g/ha ([11]; 0.1785 lb/A): 85% | inhibition at 280.212 g/ha ([11]; 0.25 lb/A): 70% | inhibition at 1000.92 g/ha ([11]; 0.893 lb/A): 90% | inhibition at 7.95803 g/ha ([12]; 0.0071 lb/A): 0% | inhibition at 40.0143 g/ha ([12]; 0.0357 lb/A): 20% | inhibition at 200.072 g/ha ([12]; 0.1785 lb/A): 0% | inhibition at 1000.92 g/ha ([12]; 0.893 lb/A): 85% | inhibition at 7.95803 g/ha ([13]; 0.0071 lb/A): 20% | inhibition at 40.0143 g/ha ([13]; 0.0357 lb/A): 75% | inhibition at 200.072 g/ha ([13]; 0.1785 lb/A): 95% | inhibition at 280.212 g/ha ([13]; 0.25 lb/A): 100% | inhibition at 1000.92 g/ha ([13]; 0.893 lb/A): 100%
